The results in this text go back to patent publication US20040192554A1, “Technique for effectively treating an agricultural product with a 1-substituted-cyclopropene” (priority 2003, published 2004).

Format in all cases: in vivo
Assay [1] relates to apple (variety "Orin") fruit. The assay is described as follows: Quality deterioration of apple (Orin) fruit after storage, Example 6. The note with it: 1 ppm, after storage 25 degrees C 3 weeks. The procedure: Using an apple (variety “Orin”) fruit (6 fruits were used per group) as an agricultural product, the following experiment was performed.
(§1) 1) A fruit and 1-methylcyclopropene (concentration 1 ppm in a chamber) were placed into a sealed chamber, and contact-treated for 16 hours under a normal pressure.
2) A fruit was placed into a sealed chamber, and a pressure in the chamber was reduced to 25.0 kPa. Subsequently, 1-methylcyclopropene was placed therein to the concentration in the chamber of 1 ppm, and contact-treated for 1 hour under the reduced pressure (25.0 kPa).
3) A fruit was placed into a sealed chamber. Subsequently, a pressure in the chamber was reduced to 25.0 kPa, and the fruit was kept in the chamber for 1 hour under the reduced pressure (25.0 kPa).
The fruit which had been subjected to treatment of the above-mentioned 1), 2) or 3) was stored at 25 degrees C for 3 weeks, and hardness of flesh and mealy of flesh were measured. In addition, treatments of the above-mentioned 1), 2) and 3) were performed regarding fruits which had been stored for about 1 month after harvesting of fruit. In addition, also regarding a fruit undergoing no treatment of 1), 2) or 3) (non-treatment), similar storage was performed, and the above-mentioned index was measured. Further, regarding non-treated fruit, the above-mentioned index before storage was also measured. Different alpha characters in Table 6 indicate that a significant difference was recognized at a risk rate of 5% (multiple range test of Newman-Keuls).

Assay [2] relates to Japanese pear (variety "Shinsei") fruit. The assay is described as follows: Quality deterioration of Japanese pear (Shinsei) fruit after storage, Example 1. The note with it: 1 ppm, after storage 25 degrees C 2 weeks. The procedure: Using a Japanese pear (variety “Shinsei”) fruit (6 fruits were used per group) as an agricultural product, the following experiment was preformed.
1) A fruit and 1-methylcyclopropene (concentration 1 ppm (parts per million) in a chamber) were placed into a sealed chamber (volume 30L, same in the following Examples), and contact-treated for 1 hour or 16 hours under a normal pressure.
2) A fruit was placed into a sealed chamber, and a pressure in the chamber was reduced to 12.5 kPa. Subsequently, 1-methylcyclopropene was placed therein to the concentration in the chamber of 1 ppm, and contact-treated for 30 minutes or 1 hour under the reduced pressure (12.5 kPa).
The fruit which had been subjected to treatment of above-mentioned 1) or 2) was stored at 25 degrees C for 2 weeks, and hardness of flesh and pH of a fruit juice which is an index for the content of an acid were measured. In addition, browning of flesh and fruit core, which is an index for an extent of storage disorder was assessed by naked eyes. Contact treatment of the above-mentioned 1) or 2) was performed on a day of harvesting a fruit. In addition, also regarding a fruit undergoing no treatment of 1) or 2) (non-treatment), similar storage was performed, and the above-mentioned index was measured and assessed. Further, regarding non-treated fruit, the above-mentioned index before storage was also measured and assessed. Different alpha characters in Table indicate that a significant difference was recognized at a risk rate of 5% (multiple range test of Newman-Keuls). In Tables showing the results of the following Examples 1 to 10, “1-MCP” denotes 1-methylcyclopropene.

The test system of assay [3] is peach (variety "Akatsuki") fruit. The assay is described as follows: Quality deterioration of peach (Akatsuki) fruit after storage, Example 8. As to conditions: 1 ppm, after storage 25 degrees C 5 days, treated on day of harvest. The method, then: Using a peach (variety “Akatsuki”) fruit (6 fruits were used per group) as an agricultural product, the following experiment was performed.
1) A fruit and 1-methylcyclopropene (concentration in a chamber 1 ppm) were placed into a sealed chamber, and contact-treated for 12 hours under a normal pressure.
2) A fruit was placed into a sealed chamber, and a pressure in the chamber was reduced to 25.0 kPa. Subsequently, 1-methylcyclopropene was placed therein to the concentration in the chamber of 1 ppm, and contact-treated for 1 minute under the reduced pressure (25.0 kPa). Then, the pressure was returned to a normal pressure, and contact treatment was carried out for 12 hours while the concentration of 1-methylcyclopropene in the chamber was maintained at 1 ppm.
The fruit which had been subjected to treatment of the above-mentioned 1) or 2) was stored at 25 degrees C for 5 days, and hardness of flesh was measured. In addition, contact treatment of the above-mentioned 1) or 2) was performed on a day for harvesting of a fruit. In addition, also regarding a fruit undergoing no treatment of 1) or 2) (non-treatment), similar storage was performed, and the above-mentioned index was measured. Further, regarding a non-treated fruit, the above-mentioned index before storage was also measured. […]

Assay [4] relates to Japanese pear (variety "Hosui") fruit. Briefly: Quality deterioration of Japanese pear (Hosui) fruit after storage, Example 4. As to conditions: 1 ppm, after storage 25 degrees C 2 weeks. The method, then:
Using a Japanese pear (variety “Hosui”) fruit (6 fruits were used per group) as an agricultural product, the following experiment was performed.
as §1
2) A fruit was placed into a sealed chamber, and a pressure in the chamber was reduced to 25.0 kPa. Subsequently, 1-methylcyclopropene was placed therein to the concentration in the chamber of 1 ppm, and contact-treated for 1 minute under the reduced pressure (25.0 kPa).
The fruit which had been subjected to treatment of the above-mentioned 1) or 2) was stored at 25 degrees C for 2 weeks, and hardness of flesh and pH of a fruit juice which is an index for the content of an acid were measured. Contact treatment of the above-mentioned 1) or 2) was performed on a day of harvesting a fruit. In addition, also regarding a fruit undergoing no treatment of 1) or 2) (non-treatment), similar storage was performed, and the above-mentioned index was measured. Further, regarding non-treated fruit, the above-mentioned index before storage was also measured. Different alpha characters in Table 4 indicate that a significant difference was recognized at a risk rate of 5% (multiple range test of Newman-Keuls).

Setting [5] is: Reduced pressure (25.0 kPa) 1 hour.
[6] abbreviates: Reduced pressure (12.5 kPa) 30 minutes.
The mark [7] stands for this setting: Reduced pressure (12.5 kPa) 1 hour.
Setting [8] is: Reduced pressure (25.0 kPa) 1 minute.

In the case of `CC1=CC1` [1-MCP, 1-methylcyclopropene], the Hardness of flesh in assay [1] (Normal pressure 16 hours) was determined as 42.06ab N; in assay [1] (setting [5]), 44.02b N; in assay [2] (Normal pressure 1 hour) it was 16.46a N; in assay [2] (Normal pressure 16 hours) it was 21.17b N; in assay [2] (setting [6]) it was 20.58b N; in assay [2] (setting [7]) it was 20.97b N. In addition, the Hardness of flesh in assay [3] (Normal pressure 12 hours after reduced pressure (25.0 kPa) 1 minute) turned out to be 6.18b N; in assay [3] (Normal pressure 12 hours) it was 2.84a N; in assay [4] (Normal pressure 16 hours), 18.72 N; in assay [4] (setting [8]), 17.25 N. Also, the Mealy of flesh result in assay [1] (Normal pressure 16 hours) and in assay [1] (setting [5]) was “Slight” throughout. In addition, the “Presence or absence of browning” value was “Presence” in assay [2] (Normal pressure 1 hour), “Absence” in assay [2] (Normal pressure 16 hours), “Slight” in assay [2] (setting [6]) and “Absence” in assay [2] (setting [7]). The “pH of fruit juice” value came out at 5.07 in assay [2] (Normal pressure 1 hour); 5.07 in assay [2] (Normal pressure 16 hours); 5.10 in assay [2] (setting [6]); 4.97 in assay [2] (setting [7]); 4.37a in assay [4] (Normal pressure 16 hours); 4.43a in assay [4] (setting [8]).
